Measured values from article PMC12019583 (Journal of Neurochemistry, 2025).
Values joined by “and” are separate entries in the source; they are usually repeats but may differ in a detail not shown here. Identical values can stand only once. Like-named read-outs stand apart in the source and are kept apart here. One block for each molecule: values may come before it.

Assays:
human SERT [1] = target: T1, human SERT (Homo sapiens, UniProt P31645); assay: Whole-cell patch-clamp recordings of 5-HT-induced currents in HEK293 cells expressing human SERT; type: cell-based; settings: for effect on serotonin-induced inwardly directed current: 10 μM, 5-HT 10 μM
Description: Whole‐cell patch‐clamp recordings were performed as recently described (Niello et al. [2023]). HEK293 cells stably expressing wild‐type GFP‐tagged human SERT were seeded at low density on poly‐D‐lysine‐coated dishes. Twenty hours after seeding, these cells were subjected to patch‐clamp recordings in the whole‐cell configuration. […] The internal solution in the patch pipette contained 133 mM potassium gluconate (CH2OH(CHOH)4COOK), 5.9 mM NaCl, 1 mM CaCl2, 0.7 mM MgCl2, 10 mM HEPES, 10 mM EGTA (pH adjusted to 7.2 with KOH). Drugs were applied using a 4‐tube ALA perfusion manifold (NPI Electronic GmbH, Germany) and a DAD‐12 superfusion system (Adams & List, Westbury, NY, USA) allowing for complete solution exchange around the cells within 100 ms. Currents were recorded via an Axopatch 200B amplifier (MDS Analytical Technologies, Sunnyvale, California) and analyzed using Clampfit 10.2 software. Passive holding currents were subtracted, and the traces were filtered using a 100 Hz digital Gaussian low‐pass filter.
(§1) The symbols represent three to four experiments performed in triplicate on different days, the error bars denote standard deviation. The red curves indicate the conditions promoting the optical switching (at a wavelength of 365 nm), the black curves indicate standard illumination. […] The rate of current recovery upon removal of (Z)‐9 from the bath solution (i.e., k off) was estimated by a fit of a monoexponential function to the current trace (see solid red line). […] Panel d: Viability assay employing trypan blue. […] PAR = paroxetine.

human GAT3 = target: T2, human GAT3 (Homo sapiens, UniProt P48066); assay: Uptake inhibition of [3H]GABA in HEK293 cells expressing hGAT3; type: cell-based; settings: for IC50: [3H]GABA uptake, read-out: hGAT3 IC50 ± SD
T2 construct: expressed in transfected cells; host or cells: HEK293
T2 sequence (P48066 1-632): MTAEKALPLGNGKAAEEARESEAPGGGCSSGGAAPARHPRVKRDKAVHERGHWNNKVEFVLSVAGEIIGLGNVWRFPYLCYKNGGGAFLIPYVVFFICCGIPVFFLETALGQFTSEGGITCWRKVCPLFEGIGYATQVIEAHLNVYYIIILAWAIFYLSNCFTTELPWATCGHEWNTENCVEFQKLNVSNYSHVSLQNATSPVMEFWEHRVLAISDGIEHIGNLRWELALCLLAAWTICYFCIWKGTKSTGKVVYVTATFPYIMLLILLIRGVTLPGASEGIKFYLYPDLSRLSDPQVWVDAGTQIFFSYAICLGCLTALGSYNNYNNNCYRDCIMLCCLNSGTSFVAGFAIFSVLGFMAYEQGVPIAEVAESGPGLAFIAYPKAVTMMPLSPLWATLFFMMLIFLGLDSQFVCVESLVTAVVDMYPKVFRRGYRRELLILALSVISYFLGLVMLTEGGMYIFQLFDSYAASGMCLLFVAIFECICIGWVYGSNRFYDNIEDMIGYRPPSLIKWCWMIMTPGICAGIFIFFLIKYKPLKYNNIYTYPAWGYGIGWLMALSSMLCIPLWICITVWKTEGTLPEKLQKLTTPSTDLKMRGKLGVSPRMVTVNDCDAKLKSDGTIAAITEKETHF
Description: (§2) The cells were cultured in a humidified atmosphere (37°C, 5% CO2) on standard plastic culture ware. To maintain the selection pressure for the stable cell lines, 150 units/mL Geneticin was added. Cells were typically not passaged over 25 times.
(§3) After 10 min, the preincubation solution was replaced by 0.05 mL/well KHB still containing the substance of interest and tritiated substrate additionally (50 nM [^3H]MPP^+ for the YhDAT; 100 nM [^3H]5HT for the YhSERT; 30 nM [^3H]GABA for the YhGAT1, hGAT3 and YrGAT1 and 20 nM [^3H]MPP^+ for the hNET) maintaining UV light treatment/no additional light treatment. Substrate uptake was stopped after 1 min (for [^3H]5HT) or 3 min (for [^3H]GABA and [^3H]MPP^+), respectively, by exchange of the substrate‐containing buffer with 0.2 mL/well ice‐cold KHB. The KHB was aspirated immediately, and the cells were lysed in 0.2 mL 1% SDS, transferred to 6‐mL scintillation vials, and assayed for [^3H] content by liquid scintillation counting.
(§4) Data from uptake experiments were subjected to non‐linear, least squares curve fitting to equations for a rectangular hyperbola using a Marquardt–Levenberg algorithm (GraphPad Prism v.9).

rat GAT1 = target: T3, rat GAT1 (Rattus norvegicus, UniProt P23978); assay: Uptake inhibition of [3H]GABA in HEK293 cells expressing YrGAT1; type: cell-based; settings: for IC50: [3H]GABA uptake, read-out: rGAT IC50 ± SD
T3 construct: expressed in transfected cells
Description: as §2, §3, §4

human GAT1 = target: T4, human GAT1 (Homo sapiens, UniProt P30531); assay: Uptake inhibition of [3H]GABA in HEK293 cells expressing YhGAT1; type: cell-based; settings: for IC50: [3H]GABA uptake, read-out: hGAT1 IC50 ± SD
T4 construct: expressed in transfected cells; host or cells: HEK293
Description: as §2, §3, §4

NET = target: NET; set-up: method as in Kristensen et al. [2011]; Owens et al. [2001]; settings: ref Kristensen et al. [2011]; Owens et al. [2001]; cited from earlier work
human DAT = human DAT (Homo sapiens, UniProt Q01959); assay: Uptake inhibition of [3H]MPP+ in HEK293 cells stably expressing YhDAT; type: cell-based; settings: for loss in affinity at DAT in comparison with paroxetine (factor): basal light; for effect of optical switching on inhibitory potency at DAT: basal vs 365 nm; for IC50: [3H]MPP+ uptake, read-out: DAT IC50 ± SD
Description: as §2, §3, §4

[2] = Thermal (Z)/(E) isomerization half-life by UV/Vis; type: physicochemical; settings: (Z)-isomer; 50 μM in dry DMSO, 23 °C; read-out: half-life time of thermal (Z)/(E) isomerization (converted)
Description: The rough experimental half-life time of the ( Z)-isomer of compound 9 was determined on a UV-1800 UV/Vis spectrophotometer from Shimadzu at 23 °C. A 50 μM sample of the compound in dry DMSO was irradiated with 365 nm for 5 seconds using the respective OmniCure® LED head at 100% power. Once the highest possible (Z)-isomer content was reached, the absorption at 331 nm, the ( E)-isomer’s absorption maximum l max, was regularly measured over the course of 12 hours. […]
of the thermal ( Z)/(E) isomerization.
A mathematical fitting function was used to linearize the obtained absorption data over time according to Equation S1.
AAllllllllllllllllllll = ln (AAmmllmm − AAtt )
Equation S1. Linear fit used for absorption AA .
The linearized absorption value gained by equation S1 was plotted over time and a linear fit function was applied. The obtained fit function gave the rate constant k as its slope value.
Next, the half- life time was calculated according to Equation S2. The resulting graph is shown […]
Equation S2. Calculation of half-life ττ1/2 time from rate constant kk .
This method of thermal half- life time determination wa s sufficiently precise for the […]
been shown (Singer et al, 2023) to yield similar results as compiling an Eyring plot for half-life time determination without the compound relax ing back to nearly 100% (E)-isomer.
Graph S1. […]

HEK293 cells = assay: Viability assay employing trypan blue; type: cell-based, human; settings: dose-dependent, up to high concentrations, DMSO positive control
Excerpt: as §1

human SERT [3] = target: T1, human SERT; assay: Uptake inhibition of [3H]5-HT in HEK293 cells stably expressing YhSERT; type: cell-based; settings: for IC50: [3H]5-HT uptake, read-out: SERT IC50 ± SD
Description: as §2, §3, §4

hNET = hNET (Homo sapiens, UniProt P23975); assay: Uptake inhibition of [3H]MPP+ in HEK293 cells stably expressing hNET; type: cell-based; settings: for loss in affinity at NET in comparison with paroxetine (factor): basal light; for reduction in IC50 by optical switching at NET: basal vs 365 nm; for IC50: [3H]MPP+ uptake, read-out: NET IC50 ± SD
Description: as §2, §3, §4

[4] = UHPLC-TOF-MS quantification of (E)/(Z) isomer content in photostationary state; type: physicochemical; settings: after irradiation 365 nm 30 s; 10 μM; several solvents (DMSO and aqueous)
Description: Additionally, quantification measurements with UHPLC‐TOF‐MS were conducted to determine the efficiency of the (E) to (Z) isomerization of azo‐paroxetine. […] Moreover, biological uptake inhibition assay conditions were mimicked during the switching experiments by choosing respective solvents and sample concentrations. Samples representing the dark state were taken before irradiation, samples representing the (Z)‐state were obtained after irradiation with […] (intensity 600 mW/cm^2 10 mm focusing lens, λ 365 nm) for 30 s. […] Bandara and Burdette [2012]). […] Switching concentration 10 μM, concentration in UHPLC‐TOF‐MS sample 1 μM, UHPLC‐TOF‐MS sample preparation with water/acetonitrile 90/10.

T4 sequence (P30531 whole entry): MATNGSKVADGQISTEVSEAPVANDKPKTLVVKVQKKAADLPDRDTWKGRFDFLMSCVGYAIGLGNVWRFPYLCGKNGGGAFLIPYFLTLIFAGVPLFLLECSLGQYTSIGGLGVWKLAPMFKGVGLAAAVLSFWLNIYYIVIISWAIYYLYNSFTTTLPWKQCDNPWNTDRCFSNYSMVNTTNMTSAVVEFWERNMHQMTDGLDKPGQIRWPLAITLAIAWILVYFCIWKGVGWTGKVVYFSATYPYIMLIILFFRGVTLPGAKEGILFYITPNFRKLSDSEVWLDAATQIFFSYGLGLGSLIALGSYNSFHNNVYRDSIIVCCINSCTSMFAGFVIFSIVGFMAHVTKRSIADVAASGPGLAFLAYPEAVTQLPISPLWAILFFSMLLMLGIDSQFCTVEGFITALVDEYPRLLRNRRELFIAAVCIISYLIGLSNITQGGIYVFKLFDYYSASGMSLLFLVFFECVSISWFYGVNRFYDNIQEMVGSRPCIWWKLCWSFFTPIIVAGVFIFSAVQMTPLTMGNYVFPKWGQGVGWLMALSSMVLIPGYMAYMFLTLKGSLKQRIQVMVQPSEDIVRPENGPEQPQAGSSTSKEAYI
human DAT, sequence (Q01959 whole entry): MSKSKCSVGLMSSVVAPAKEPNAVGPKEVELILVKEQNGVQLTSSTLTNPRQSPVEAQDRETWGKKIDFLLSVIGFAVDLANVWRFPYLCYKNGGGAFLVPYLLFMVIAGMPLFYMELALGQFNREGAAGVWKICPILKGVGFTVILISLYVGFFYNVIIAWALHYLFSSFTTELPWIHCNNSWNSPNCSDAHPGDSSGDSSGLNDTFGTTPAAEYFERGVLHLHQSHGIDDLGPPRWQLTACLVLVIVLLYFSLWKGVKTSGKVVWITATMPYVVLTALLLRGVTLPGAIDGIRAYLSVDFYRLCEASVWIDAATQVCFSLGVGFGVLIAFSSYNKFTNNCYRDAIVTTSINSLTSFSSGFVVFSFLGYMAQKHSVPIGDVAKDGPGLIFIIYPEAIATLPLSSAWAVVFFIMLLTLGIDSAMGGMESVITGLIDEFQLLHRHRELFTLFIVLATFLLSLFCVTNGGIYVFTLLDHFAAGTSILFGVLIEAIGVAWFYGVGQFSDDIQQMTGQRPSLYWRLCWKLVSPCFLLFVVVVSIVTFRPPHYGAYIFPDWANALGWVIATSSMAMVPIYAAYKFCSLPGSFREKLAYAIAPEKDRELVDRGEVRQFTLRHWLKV
hNET, sequence (P23975 whole entry): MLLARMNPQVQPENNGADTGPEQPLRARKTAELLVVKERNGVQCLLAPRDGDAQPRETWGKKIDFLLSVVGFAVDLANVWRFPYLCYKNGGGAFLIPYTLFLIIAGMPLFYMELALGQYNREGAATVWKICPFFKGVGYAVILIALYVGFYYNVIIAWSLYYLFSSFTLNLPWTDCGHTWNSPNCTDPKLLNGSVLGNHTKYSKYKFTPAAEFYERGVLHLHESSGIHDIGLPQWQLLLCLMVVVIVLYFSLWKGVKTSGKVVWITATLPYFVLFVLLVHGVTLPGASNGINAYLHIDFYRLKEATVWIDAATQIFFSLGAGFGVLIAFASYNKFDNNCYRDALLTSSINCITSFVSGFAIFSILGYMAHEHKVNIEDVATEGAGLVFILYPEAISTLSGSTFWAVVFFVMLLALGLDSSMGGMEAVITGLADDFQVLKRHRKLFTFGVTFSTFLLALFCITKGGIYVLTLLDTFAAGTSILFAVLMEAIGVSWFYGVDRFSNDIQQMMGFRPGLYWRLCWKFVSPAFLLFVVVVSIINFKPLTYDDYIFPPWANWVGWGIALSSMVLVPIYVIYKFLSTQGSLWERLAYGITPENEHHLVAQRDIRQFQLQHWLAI
T1 sequence (P31645 whole entry, the tested form may be a part): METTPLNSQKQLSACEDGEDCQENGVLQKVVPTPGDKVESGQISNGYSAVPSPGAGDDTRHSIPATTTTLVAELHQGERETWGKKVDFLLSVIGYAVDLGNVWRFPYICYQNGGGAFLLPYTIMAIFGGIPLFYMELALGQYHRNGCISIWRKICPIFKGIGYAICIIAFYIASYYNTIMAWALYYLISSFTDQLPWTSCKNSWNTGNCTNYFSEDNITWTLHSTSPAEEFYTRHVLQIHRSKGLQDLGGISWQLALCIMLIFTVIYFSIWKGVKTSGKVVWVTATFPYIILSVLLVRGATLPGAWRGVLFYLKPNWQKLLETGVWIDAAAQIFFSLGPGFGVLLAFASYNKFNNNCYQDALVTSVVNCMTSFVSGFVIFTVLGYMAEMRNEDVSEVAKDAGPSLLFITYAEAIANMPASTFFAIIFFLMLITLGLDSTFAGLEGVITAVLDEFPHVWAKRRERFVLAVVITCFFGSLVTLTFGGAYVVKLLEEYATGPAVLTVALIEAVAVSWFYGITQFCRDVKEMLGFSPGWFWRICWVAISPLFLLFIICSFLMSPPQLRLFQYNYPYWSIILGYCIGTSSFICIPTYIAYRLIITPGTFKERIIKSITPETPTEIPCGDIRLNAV

effect on serotonin-induced inwardly directed current (human SERT [1]; (E)-isomer, standard light): marginal blockade
Molecule: c1ccc(/N=N/c2ccc([C@@H]3CCNC[C@H]3COc3ccc4c(c3)OCO4)cc2)cc1 [(E)‐azo‐paroxetine (9)]

IC50 (human GAT3; λ basal): 51 ± 3.7 µM
IC50 (rat GAT1; λ basal): 264 ± 140 µM
IC50 (human GAT1; λ basal): 122 ± 81 µM
Molecule: Fc1ccc([C@@H]2CCNC[C@H]2COc2ccc3c(c2)OCO3)cc1 [Paroxetine, paroxetine, reference compound]
Ki (NET): 0.156 ± 0.029 µM

loss in affinity at DAT in comparison with paroxetine (factor) (human DAT; listed as azo‐paroxetine): ~ 3.7
loss in affinity at DAT in comparison with paroxetine (factor) (human DAT; listed as azo‐paroxetine (9)): 2 to 5
effect of optical switching on inhibitory potency at DAT (human DAT; listed as azo‐paroxetine): 2 to 3 fold
effect of optical switching on inhibitory potency at DAT (human DAT; listed as azo‐paroxetine (9)): 1.7 fold
IC50 (human DAT; λ 365 nm): 3.77 ± 0.79 µM
IC50 (human DAT; λ basal): 6.33 ± 2.06 µM
half-life at 50 μM [2]: 156 h
IC50 (human GAT3; λ 365 nm): 90.5 ± 24.4 µM
IC50 (human GAT3; λ basal): 55 ± 16.4 µM
improvement of affinity at rat GAT1 relative to paroxetine (rat GAT1): around two to three‐fold
IC50 (rat GAT1; λ 365 nm): 126 ± 20.6 µM
IC50 (rat GAT1; λ basal): 88.9 ± 11.8 µM
IC50 (human GAT1; λ 365 nm): 107 ± 15 µM
IC50 (human GAT1; λ basal): 80.8 ± 21.6 µM
loss in affinity at SERT in comparison with parent compound paroxetine (factor) (human SERT [3]; basal light): 171 fold
IC50 (human SERT [3]; λ 365 nm (PSS, mainly (Z)-isomer)): 0.76 ± 0.18 µM
IC50 (human SERT [3]; λ basal (standard light, (E)-isomer)): 9.23 ± 3.06 µM
loss in affinity at NET in comparison with paroxetine (factor) (hNET; listed as azo‐paroxetine): ~ 5
loss in affinity at NET in comparison with paroxetine (factor) (hNET; listed as azo‐paroxetine (9)): 2 to 5
reduction in IC50 by optical switching at NET (hNET; listed as azo‐paroxetine): 2 to 3 fold
reduction in IC50 by optical switching at NET (hNET; listed as azo‐paroxetine (9)): ~threefold
IC50 (hNET; λ 365 nm): 5.41 ± 3.32 µM
IC50 (hNET; λ basal): 15.4 ± 4.04 µM
(Z)-isomer content in photostationary state [4]: 83%–87% and 83%
koff (human SERT [1]; HEK293, photoequilibrated (365 nm) state, n = 5, read-out: off-rate (k off)): 0.18 ± 0.031 s⁻¹
Molecule: c1ccc(/N=N/c2ccc([C@@H]3CCNC[C@H]3COc3ccc4c(c3)OCO4)cc2)cc1 [Azo‐paroxetine (9)]
cellular toxicity effects (trypan blue viability) (HEK293 cells; listed as azo‐paroxetine): did not find any significant toxic impact
effect on serotonin-induced inwardly directed current (human SERT [1]; photoequilibrated (365 nm)): completely abolished the inwardly directed current

Molecule: azobenzene [reference compound]
inhibition of GABA uptake at human GAT3 (human GAT3; up to 1 mM): more than 60%
inhibition of GABA uptake at rat GAT1 (rat GAT1; (E)-configuration): comparable to the value of the human GAT1
cellular toxicity effects (trypan blue viability) (HEK293 cells): neither azo‐paroxetine (9) nor azobenzene
inhibition of GABA uptake at human GAT1 (human GAT1; (E)-configuration, up to 1 mM): up to 40%
inhibitory effect on [3H]5-HT uptake at human SERT (human SERT [3]; concentrations up to 1 mM, basal and 365 nm): could not really observe any significant inhibitory effects
